Assay results reported in PubChem BioAssay AID248 (DTP/NCI, 2004).
Where “and” joins values, the source holds several entries; their conditions need not be identical. Identical values can stand only once. Toxic doses and inconclusive results are not listed. Rule as the data show it: active = T/C of 150% or more; inactive = T/C below 125%.

Test system: L1210 leukemia ip in BDF1 mice, survival T/C
Test: NCI In Vivo Anticancer Drug Screen. Data for tumor model L1210 Leukemia (intraperitoneal) in B6D2F1 (BDF1) mice
Details: endpoint: mean survival time, higher = longer survival
In short: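 Transplanted-tumor mice were given test agent; controls received vehicle only. Survival readings from the two groups were divided (treated over control).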

[1] = dose: 50.0 mg/kg/injection, schedule: Q01DX009 (ip), vehicle: Klucel (hydroxypropylcellulose) (HPC)
[2] = dose: 50.0 mg/kg/injection, schedule: Q04DX003 (ip), vehicle: saline
[3] = dose: 100.0 mg/kg/injection, schedule: Q01DX009 (ip), vehicle: Klucel (hydroxypropylcellulose) (HPC)
[4] = dose: 100.0 mg/kg/injection, schedule: Q04DX003 (ip), vehicle: saline
[5] = dose: 200.0 mg/kg/injection, schedule: Q01DX009 (ip), vehicle: Klucel (hydroxypropylcellulose) (HPC)
[6] = dose: 100.0 mg/kg/injection, schedule: Q04DX003 (ip), vehicle: Klucel (hydroxypropylcellulose) (HPC)
[7] = dose: 200.0 mg/kg/injection, schedule: Q04DX003 (ip), vehicle: Klucel (hydroxypropylcellulose) (HPC)
[8] = dose: 400.0 mg/kg/injection, schedule: Q01DX009 (ip), vehicle: Klucel (hydroxypropylcellulose) (HPC)
[9] = dose: 400.0 mg/kg/injection, schedule: Q04DX003 (ip), vehicle: Klucel (hydroxypropylcellulose) (HPC)
[10] = dose: 50.0 mg/kg/injection, schedule: Q01DX009 (ip), vehicle: saline with Tween-80
[11] = dose: 100.0 mg/kg/injection, schedule: Q01DX001 (ip), vehicle: saline
[12] = dose: 100.0 mg/kg/injection, schedule: Q01DX009 (ip), vehicle: saline with Tween-80
[13] = dose: 200.0 mg/kg/injection, schedule: Q01DX001 (ip), vehicle: saline
[14] = dose: 200.0 mg/kg/injection, schedule: Q01DX009 (ip), vehicle: saline with Tween-80
[15] = dose: 100.0 mg/kg/injection, schedule: Q01DX009 (ip), vehicle: saline
[16] = dose: 100.0 mg/kg/injection, schedule: Q04DX002 (ip), vehicle: Klucel (hydroxypropylcellulose) (HPC)
[17] = dose: 100.0 mg/kg/injection, schedule: Q04DX003 (ip), vehicle: saline with Tween-80
[18] = dose: 200.0 mg/kg/injection, schedule: Q04DX003 (ip), vehicle: saline with Tween-80
[19] = dose: 400.0 mg/kg/injection, schedule: Q04DX003 (ip), vehicle: saline with Tween-80
[20] = dose: 100.0 mg/kg/injection, schedule: Q01DX001 (ip), vehicle: Klucel (hydroxypropylcellulose) (HPC)
[21] = dose: 200.0 mg/kg/injection, schedule: Q01DX001 (ip), vehicle: Klucel (hydroxypropylcellulose) (HPC)
[22] = dose: 400.0 mg/kg/injection, schedule: Q01DX001 (ip), vehicle: Klucel (hydroxypropylcellulose) (HPC)
[23] = dose: 200.0 mg/kg/injection, schedule: Q04DX002 (ip), vehicle: Klucel (hydroxypropylcellulose) (HPC)
[24] = dose: 400.0 mg/kg/injection, schedule: Q04DX002 (ip), vehicle: Klucel (hydroxypropylcellulose) (HPC)

Measured: T/C

CCCCCCOC(=O)CCCCCCCCCCC(=O)CCCCCC
inactive: [1] 97 % of control | [2] 101 % of control | [3] 108 % of control | [4] 103 % of control | [5] 92 % of control | dose: 200.0 mg/kg/injection, schedule: Q04DX003 (ip), vehicle: saline 106 % of control

CCCCCCCCCCCCCCCCCCCC(=O)CCl
inactive: dose: 100.0 mg/kg/injection, schedule: Q04DX002 (sc), vehicle: olive oil, sesame oil, peanut oil 104 % of control | dose: 200.0 mg/kg/injection, schedule: Q04DX002 (sc), vehicle: olive oil, sesame oil, peanut oil 100 % of control | dose: 400.0 mg/kg/injection, schedule: Q04DX002 (sc), vehicle: olive oil, sesame oil, peanut oil 107 % of control

CCCCC(CC)COC(=O)/C=C/C(=O)OCC(CC)CCCC (configuration not stated)
inactive: [3] 96 % of control | [6] 101 % of control | [5] 107 % of control | [7] 95 % of control | [8] 107 % of control | [9] 93 % of control

CC(=O)Nc1cccc([N+](=O)[O-])c1
inactive: [10] 100 % of control | [11] 108 % of control | [12] 90 % of control | [13] 102 % of control | [14] 103 % of control | dose: 400.0 mg/kg/injection, schedule: Q01DX001 (ip), vehicle: saline 108 % of control

O=C(O)C(Sc1ccc(Cl)cc1)Sc1ccc(Cl)cc1
inactive: dose: 50.0 mg/kg/injection, schedule: Q04DX003 (ip), vehicle: Klucel (hydroxypropylcellulose) (HPC) 103 % of control | [6] 103 % of control | [7] 95 % of control

N#C/C(=C\c1ccncc1)c1ccccc1Cl
inactive: dose: 100.0 mg/kg/injection, schedule: Q01DX001 (ip), vehicle: other 91 % of control | dose: 200.0 mg/kg/injection, schedule: Q01DX001 (ip), vehicle: other 89 % of control | dose: 400.0 mg/kg/injection, schedule: Q01DX001 (ip), vehicle: other 96 % of control

CC(C)CC(CC(C)C)NCC(C)OC(=O)c1ccc(N)cc1 (configuration not stated)
inactive: dose: 12.5 mg/kg/injection, schedule: Q01DX009 (ip), vehicle: saline with Tween-80 96 % of control and 104 % of control | dose: 12.5 mg/kg/injection, schedule: Q04DX003 (ip), vehicle: saline with Tween-80 92 % of control | dose: 25.0 mg/kg/injection, schedule: Q01DX009 (ip), vehicle: saline with Tween-80 102 % of control and 105 % of control | dose: 25.0 mg/kg/injection, schedule: Q01DX009 (ip), vehicle: saline 98 % of control | dose: 25.0 mg/kg/injection, schedule: Q04DX003 (ip), vehicle: saline with Tween-80 104 % of control | dose: 25.0 mg/kg/injection, schedule: Q04DX003 (ip), vehicle: saline 100 % of control | [10] 96 % of control and 106 % of control | dose: 50.0 mg/kg/injection, schedule: Q01DX009 (ip), vehicle: saline 100 % of control | dose: 50.0 mg/kg/injection, schedule: Q04DX003 (ip), vehicle: saline with Tween-80 93 % of control | [2] 96 % of control | dose: 75.0 mg/kg/injection, schedule: Q01DX001 (ip), vehicle: other 92 % of control | [15] 88 % of control | [4] 102 % of control and 91 % of control

CCCCOCCCO
inactive: [15] 91 % of control | dose: 200.0 mg/kg/injection, schedule: Q01DX009 (ip), vehicle: saline 92 % of control | dose: 400.0 mg/kg/injection, schedule: Q01DX009 (ip), vehicle: saline 95 % of control

CC1CCC2=CC(=O)CCC2(C)C1C (configuration not stated)
inactive: [12] 101 % of control | [14] 96 % of control | dose: 400.0 mg/kg/injection, schedule: Q01DX009 (ip), vehicle: saline with Tween-80 91 % of control

[Cl][Sn]([CH]1CCCCC1)([CH]1CCCCC1)[CH]1CCCCC1
inactive: dose: 12.5 mg/kg/injection, schedule: Q04DX002 (ip), vehicle: gum acacia 101 % of control | dose: 25.0 mg/kg/injection, schedule: Q04DX002 (ip), vehicle: gum acacia 101 % of control

COC(=O)N1C(C)=CC=CC=C1C
inactive: dose: 12.5 mg/kg/injection, schedule: Q04DX002 (ip), vehicle: Klucel (hydroxypropylcellulose) (HPC) 94 % of control | dose: 25.0 mg/kg/injection, schedule: Q04DX002 (ip), vehicle: Klucel (hydroxypropylcellulose) (HPC) 88 % of control | dose: 50.0 mg/kg/injection, schedule: Q04DX002 (ip), vehicle: Klucel (hydroxypropylcellulose) (HPC) 98 % of control | [16] 100 % of control

COP(=O)(OC)C(OC(=O)C(C)(C)C)=C(C)C
inactive: [17] 98 % of control | [18] 110 % of control | [19] 93 % of control

C=C(C)C(=O)CC(=O)C1CCc2cc(OC)ccc2C1=O (configuration not stated)
inactive: dose: 100.0 mg/kg/injection, schedule: Q01DX009 (ip), vehicle: saline sonified 102 % of control | dose: 200.0 mg/kg/injection, schedule: Q01DX009 (ip), vehicle: saline sonified 96 % of control | dose: 400.0 mg/kg/injection, schedule: Q01DX009 (ip), vehicle: saline sonified 100 % of control

C=CCNC(=S)Nc1cccc(OC(=O)Nc2ccc(Cl)c(Cl)c2)c1
inactive: [3] 87 % of control | [5] 92 % of control

CC1(C)OCC(COCc2ccccc2)O1 (configuration not stated)
inactive: [17] 96 % of control | [18] 104 % of control | [19] 95 % of control

OCc1ccccc1CN1CCCC1
inactive: [20] 94 % of control | [21] 96 % of control | [22] 97 % of control

NC(=S)N/N=C/c1ccccc1O
inactive: dose: 50.0 mg/kg/injection, schedule: Q01DX001 (ip), vehicle: carboxymethylcellulose (CMC) 96 % of control | dose: 100.0 mg/kg/injection, schedule: Q01DX001 (ip), vehicle: carboxymethylcellulose (CMC) 104 % of control | dose: 100.0 mg/kg/injection, schedule: Q04DX002 (ip), vehicle: saline with Tween-80 90 % of control | dose: 200.0 mg/kg/injection, schedule: Q01DX001 (ip), vehicle: carboxymethylcellulose (CMC) 91 % of control | dose: 200.0 mg/kg/injection, schedule: Q04DX002 (ip), vehicle: saline with Tween-80 104 % of control | dose: 400.0 mg/kg/injection, schedule: Q01DX001 (ip), vehicle: carboxymethylcellulose (CMC) 91 % of control | dose: 400.0 mg/kg/injection, schedule: Q04DX002 (ip), vehicle: saline with Tween-80 93 % of control

Nc1ncnc2n[nH]nc12
inactive: [1] 104 % of control | [3] 106 % of control

O=C(NCCS)c1ccc(C(=O)NCCS)cc1
inactive: [16] 95 % of control | [23] 103 % of control | [24] 103 % of control

CCN(CC)Cc1ccc(C2=NCCO2)cc1
inactive: dose: 50.0 mg/kg/injection, schedule: Q01DX001 (ip), vehicle: saline 91 % of control | [11] 94 % of control | [13] 98 % of control

O=C(Nc1ccccc1F)Oc1ccc(Cl)cc1Cl
inactive: [1] 114 % of control | [3] 111 % of control | [16] 105 % of control | [5] 102 % of control | [23] 102 % of control

CSc1ccc(OC(=O)Nc2cccc(F)c2)cc1
inactive: [20] 88 % of control | [3] 105 % of control and 109 % of control | [16] 101 % of control and 91 % of control | [6] 104 % of control and 124 % of control | [21] 101 % of control | [5] 100 % of control and 101 % of control | [23] 94 % of control and 98 % of control | [7] 107 % of control and 120 % of control | [22] 104 % of control | [8] 109 % of control and 90 % of control | [24] 93 % of control and 94 % of control | [9] 104 % of control

O=C(O)c1cccc(CCc2cccnc2)c1
inactive: dose: 100.0 mg/kg/injection, schedule: Q01DX001 (ip), vehicle: saline with Tween-80 98 % of control | dose: 200.0 mg/kg/injection, schedule: Q01DX001 (ip), vehicle: saline with Tween-80 101 % of control | dose: 400.0 mg/kg/injection, schedule: Q01DX001 (ip), vehicle: saline with Tween-80 93 % of control

CCOC(=O)C(C)N (configuration not stated)
inactive: [3] 93 % of control | [6] 105 % of control | [5] 93 % of control | [7] 102 % of control | [8] 97 % of control | [9] 97 % of control
